Tests used:
[1] = test system: rats given chronic intrajugular rotenone; settings: chronic intrajugular rotenone in rats; cited from earlier work
[2] = test system: rats with unilateral 6-OHDA-induced nigral lesion; settings: cited from earlier work
tyrosinase = tyrosinase (Homo sapiens, UniProt P14679); settings: cited from earlier work
isolated rat lens = assay: Inhibition of oxidation of isolated rat lenses (H2O2 cataract model); type: cell-based, Wistar rat; settings: 10 mM, 24 hour incubation, then 0.5 mM H2O2 24 hours; compared to control (FIG. 1)
Procedure: Protocol for inhibition of oxidation of isolated rat lenses. Three-week old Wistar rat eyes were enucleated and lenses micro-dissected in Dulbecco's modified eagle's medium (low glucose) (DMEM-F12). Lenses were handled using only custom-made glass loops to avoid changes in transparency and placed in 1 mL DMEM with 1% penicillin/streptomycin/neomycin. Lenses were placed in a culture incubator set at 37° C./5% CO2 for one hour. Then lenses were imaged under darkfield and brightfield (grid) to ensure they are still transparent before adding vehicle (H20), 10 mM NACA (solution), or 10 mM diNACA (suspension). Lenses were then imaged at a 6-hour time period to ensure transparency was maintained, then incubated for another 18 hours, then imaged again (total 24 hour incubation). Media was collected and fresh media was added to the wells. 0.5 mM H2O2 (warmed at 37 deg C) was added and left for a further 24-hour incubation. Lenses were imaged, media collected, lenses weighed and flash frozen in tared vials and submitted for further analysis

CD-1 mice = settings: gp120+Tat+METH; cited from earlier work
[3] = test system: olfactory bulbectomized rats; settings: cited from earlier work
[4] = test system: mice treated with 1-methyl-4-phenyl-1,2,3,6,-tetrahydropyridine; settings: MPTP-treated mice; cited from earlier work
[5] = test system: blood cells from β-thalassemic patients; settings: cited from earlier work
human melanocytes = settings: cited from earlier work
[6] = test system: healthy human skin explants; settings: healthy human skin explants exposed to UV-radiation; cited from earlier work
[7] = test system: human retinal pigment epithelial cells; settings: cited from earlier work
[8] = test system: J-buthionine-(S,R)-induced cataracts; settings: in vivo; cited from earlier work
RBCs = settings: compared with NAC; cited from earlier work
isolated porcine lenses = assay: Inhibition of oxidation of isolated porcine lenses (H2O2-induced cataract); type: cell-based, pigs; settings: for inhibition of H2O2-induced cataract: 24 hours pre-incubation, then 600 μM H2O2 with glucose oxidase 6 hours (FIG. 2); for efficacy against H2O2-induced cataract relative to NAC: FIG. 2
Procedure: Protocol for inhibition of oxidation of isolated porcine lenses. Fresh eyes from pigs were obtained from Sierra For Medical Science. Lenses were first incubated in medium 199 (Sigma-Aldrich, St. Louis, Mo., USA) and 1% pig serum in a 12-well plate for two hours. At the end of the incubation, lenses were imaged under darkfield microscopy and only clear, transparent lenses were used for further experimentation. Lenses were then pre-incubated with NAC, NACA or diNACA for 24 hours. After pretreatment, lenses were transferred to media containing 600 μM H2O2 which was supplemented with glucose oxidase (GO) for maintaining a constant H2O2 level during further incubation for 6 hours [Wang G M, Raghavachari N, Lou M F. Relationship of protein-glutathione mixed disulfide and thioltransferase in H2O2-induced cataract in cultured pig lens. Exp Eye Res. 1997 May; 64(5):693-700. doi: 10.1006/exer.1996.0251. PMID: 9245898.]. At the end of the 6-hour incubation, lenses were imaged under darkfield microscopy

mouse model of RP = settings: compared with NAC; cited from earlier work
β-thalassemic mice = settings: intra-peritoneal injection, 150 mg/kg; cited from earlier work
[9] = test system: sodium selenite-induced cataracts; settings: in vivo; cited from earlier work
[10] = target: glutamate cysteine ligase (GCL, EC 6.3.2.2); settings: read-out: Ki, nonallosteric competitive inhibition of GCL; cited from earlier work
human cadaver lenses = settings: in vitro; cited from earlier work
rabbit eyes = settings: in vivo; cited from earlier work
patients with presbyopia = settings: first-in-human trial in presbyopes; cited from earlier work
[11] = test system: corneal endothelial cells; settings: cell culture; cited from earlier work
alcohol-preferring rats = settings: alcohol re-access after deprivation, 60 minutes; untreated 95 to 100 mg/dL; cited from earlier work
[12] = humans, oral dose of 600 mg; cited from earlier work
RP patients = settings: oral high dose NAC, cited from earlier work
mouse model = settings: cited from earlier work
[13] = Intravitreal dose study in rabbit (diNACA implant); type: in vivo, Female New Zealand White rabbits
Procedure: Example 3: Intravitreal Dose Study in Rabbit. An IACUC-approved study evaluated intravitreally (IVT) dosed diNACA in rabbit. A standard sterile intravitreal implant containing diNACA was prepared. Female New Zealand White rabbits were administered IVT with a di-NACA implant at a dose of 0.8 mg/eye. One group of animals received IVT placebo implants without any test article. Clinical ophthalmic examinations were performed at baseline and on Days 8 and 23 post-dose. General health observations were performed daily. Body weights were recorded at baseline and prior to termination. Animals were euthanized on Day 8, 15, or 23, and tissue was collected and submitted for bioanalysis. […] Observations of conjunctival bulging, discharge, and minimal hemorrhaging were determined to be related to the injection procedure and resolved in most eyes on the day after dosing.

[14] = Topical ocular study in rabbit (NACA in aqueous humor, ocular tolerability); type: in vivo, Dutch Belted rabbits
Procedure: Example 2: Topical Ocular Study in Rabbit. An IACUC-approved study evaluated diNACA or NACA topical ocular dosing in rabbit. Ophthalmic formulations were developed containing either 1% diNACA or 1% NACA that were used for repeated topical ocular instillation to Dutch Belted rabbits. Animals were dosed four times a day at approximately 8:00 AM, 11 AM, 2 PM, and 4:00 PM on days 1-6, and once on Day 7 at approximately 8:00 AM, via bilateral topical administration. Ocular tolerability was assessed at baseline and prior to the first daily dose by means of scoring chemosis, discharge, and hyperemia (Draize scoring). Ocular tissue was harvested at necropsy (day 7). A qualified analytical LC-MS method was developed and used to quantitate NACA levels in aqueous humor (AH).

[15] = Oral dose study in rat (plasma levels); type: in vivo, male Sprague-Dawley rats; settings: oral gavage diNACA 200 milligrams per kilogram (FIG. 5)
Procedure: DiNACA as a Prodrug to NACA and NAC. Example 1: Oral Dose Study in Rat. An IACUC (Institutional Animal Care and Use Committee)-approved study evaluated diNACA dosed via oral gavage in male Sprague-Dawley rats. diNACA was weighed into individual tubes. The tubes were capped and stored at room temperature overnight. Rats were weighed. An appropriate amount of phosphate buffered saline pH 7.0 was added to each tube to achieve the desired diNACA concentration as a suspension. Blood specimens were collected from the tail vein at specified time points and processed to produce plasma. Plasma specimens were analyzed using a validated liquid chromatographic mass spectrometric procedure (King B; Vance J; Wall G M; Shoup R. Quantitation of free and total N-acetylcysteine amide and its metabolite N-acetylcysteine in human plasma using derivatization and electrospray LC-MS/MS. J Chrom B 2019; 1109:25-36.).

[16] = vitreous humor (FIG. 6, FIG. 7)

tyrosinase, sequence (P14679 19-529, species assumed): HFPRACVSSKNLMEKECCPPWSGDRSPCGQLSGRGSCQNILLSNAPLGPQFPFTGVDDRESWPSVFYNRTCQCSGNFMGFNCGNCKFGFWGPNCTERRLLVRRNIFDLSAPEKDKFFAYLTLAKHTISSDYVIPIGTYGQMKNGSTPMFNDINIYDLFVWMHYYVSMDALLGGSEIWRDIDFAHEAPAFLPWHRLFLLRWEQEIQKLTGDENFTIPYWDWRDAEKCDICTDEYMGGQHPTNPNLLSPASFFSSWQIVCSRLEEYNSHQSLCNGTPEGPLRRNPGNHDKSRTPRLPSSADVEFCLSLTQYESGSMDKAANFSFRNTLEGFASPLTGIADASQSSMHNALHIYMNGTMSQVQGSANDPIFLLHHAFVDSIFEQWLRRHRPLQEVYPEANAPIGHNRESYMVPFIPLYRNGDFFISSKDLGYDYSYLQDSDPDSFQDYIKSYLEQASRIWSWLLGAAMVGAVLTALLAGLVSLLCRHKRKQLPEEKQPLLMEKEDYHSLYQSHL

## CC(=O)N[C@@H](CS)C(N)=O
[1]
  dopaminergic neuronal loss: reduced dopaminergic neuronal loss
[2]
  amphetamine-induced rotational behaviour: suppressed amphetamine-induced rotational behaviour
tyrosinase
  inhibition of tyrosinase activity: significant inhibition of tyrosinase activity was observed in a dose responsive manner
Isolated rat lens
  inhibition of oxidative formation of cataract (opacity): inhibit oxidative formation of cataract (opacity)
CD-1 mice
  rescue from oxidative stress (GSH, MDA): significantly rescued the animals from oxidative stress
[3]
  cocaine-seeking behavior: blocked cocaine-seeking behavior
[4]
  reduction in striatal dopamine levels: attenuated the reduction in striatal dopamine levels
[5]; both in vitro and in vivo
  reduction of oxidative stress markers in thalassemic cells relative to NAC: superior to NAC
[5]; in vitro treatment
  reactive oxygen species (ROS) of blood cells: reduced their reactive oxygen species (ROS)
  reduced GSH content of RBC, platelets and PMN leukocytes: elevated the reduced GSH content
Human melanocytes
  melanin production: inhibited melanin production
[6]
  glutathione and NAC in skin: increased glutathione and NAC
[7]
  protection against oxidative stress-induced cellular injury and death: protected against oxidative stress-induced cellular injury and death
[8]
  inhibition of buthionine sulfoximine-induced cataracts: inhibit
RBCs
  BuOOH-induced intracellular oxidation, thiol depletion and hemoglobin oxidation in RBCs: superior to NAC
Isolated porcine lenses
  inhibition of H2O2-induced cataract: dose-dependently inhibit H2O2-induced cataract
  efficacy against H2O2-induced cataract relative to NAC: greater efficacy than NAC
Mouse model of RP
  improvement of visual parameters: to a greater extent than NAC
β-thalassemic mice
  parameters of oxidative stress: significantly reduced the parameters of oxidative stress
[9]
  inhibition of sodium selenite-induced cataracts: inhibit

## N[C@@H](CCC(=O)N[C@@H](CS)C(=O)NCC(=O)O)C(=O)O [GSH, c-L-glutamyl-L-cysteinyl-glycine]
[10]
  Ki: 2300 µM

## C[N+](C)(C)CCOC(=O)CCCC[C@@H]1CCSS1 [LACE, lipoic acid choline ester]
Human cadaver lenses
  lens softening and deformability: lens softening and an increase in lens deformability
Rabbit eyes
  lens softening and deformability: lens softening and an increase in lens deformability
Patients with presbyopia
  near visual acuity (DCNVA) improvement compared to placebo: statistically significant

## CC(=O)NC(CS)C(=O)O (stereo not drawn) [NAC, 2-acetamido-3-sulfanylpropanoic acid]
[11]
  corneal endothelial survival: increased corneal endothelial survival
alcohol-preferring rats
  reduction of relapse-drinking blood alcohol levels: 60%
[12]
  plasma half-life: 2.5 h
  time after administration at which no NAC is detectable: 10 to 12 h
Isolated porcine lenses
  inhibition of H2O2-induced cataract: dose-dependently inhibit H2O2-induced cataract
RP patients; RP patients (n=30), p<0.05
  improvement of visual acuity: 2-5 letters
RP patients; RP patients
  aqueous humor concentrations of NAC: increased aqueous humor concentrations of NAC
Mouse model
  corneal endothelial survival: increased corneal endothelial survival

## CC(=O)Oc1ccccc1C(=O)O [aspirin]
alcohol-preferring rats
  reduction of relapse-drinking blood alcohol levels: 60%

## CC(=O)NC(CSSCC(NC(C)=O)C(N)=O)C(N)=O [diNACA, (2R,2R′)-3,3′-disulfanediyl bis(2-acetamidopropanamide)]
[13]; IVT implant 0.8 mg/eye
  effects on general, non-ocular health or on body weights: No serious adverse effects
  ocular findings on the day of dosing: minimal ocular findings
[13]; IVT implant 0.8 mg/eye, up to Day 23
  tolerability of IVT delivery: generally well tolerated
[13]; [16]
  elution into vitreous humor from IVT implant: eluted into the VH
  metabolites in vitreous humor after diNACA IVT implant: presence of NACA and significant concentrations of NAC in the VH
tyrosinase
  inhibition of tyrosinase activity: significant inhibition of tyrosinase activity was observed in a dose responsive manner
Isolated rat lens
  inhibition of oxidative formation of cataract (opacity): inhibit oxidative formation of cataract (opacity)
[14]; topical ocular dosing
  penetration into the eye (aqueous humor): penetrates the eye
[14]; topical ocular dosing of 1% diNACA
  prodrug delivery of NACA to aqueous humor: served as a prodrug to deliver NACA to the AH
Human melanocytes
  melanin production: inhibited melanin production
[6]
  glutathione and NAC in skin: increased glutathione and NAC
Isolated porcine lenses
  inhibition of H2O2-induced cataract: dose-dependently inhibit H2O2-induced cataract
  efficacy against H2O2-induced cataract relative to NAC: greater efficacy than NAC
[15]
  bioavailability after oral administration: bioavailable
  levels in rat plasma after oral diNACA: significant levels of diNACA, NACA and NAC
